One may read the EC50 as the concentration needed to bring the measured effect to its halfway point.

Molecules are shown by their SMILES.

The results in this text go back to patent US8614327B2 (Vertex Pharmaceuticals Incorporated, priority 2004, dated 2013).

The target in this test is T1, ΔF508-CFTR (Homo sapiens, UniProt P13569, DEL508-508).
T1 construct: expressed in transfected cells
Put plainly: Membrane potential optical (FRET/VIPR) assay, identification of potentiator compounds. It counts as cell-based. The settings on record: Table 3, assay not given; for % Activity: relative efficacy. The essentials:
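Double-addition potentiator screen: compound delivered in gluconate-substituted Cl^--free medium, membrane potential followed via CC2-DMPE/DiSBAC2(3) FRET on VIPR. Cells were ΔF508-CFTR-expressing NIH3T3 mouse fibroblasts, held 2 h at 37° C. then 24 h at 27° C. before assay.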

T1 sequence (P13569 with tags, fused parts or gaps DEL508-508): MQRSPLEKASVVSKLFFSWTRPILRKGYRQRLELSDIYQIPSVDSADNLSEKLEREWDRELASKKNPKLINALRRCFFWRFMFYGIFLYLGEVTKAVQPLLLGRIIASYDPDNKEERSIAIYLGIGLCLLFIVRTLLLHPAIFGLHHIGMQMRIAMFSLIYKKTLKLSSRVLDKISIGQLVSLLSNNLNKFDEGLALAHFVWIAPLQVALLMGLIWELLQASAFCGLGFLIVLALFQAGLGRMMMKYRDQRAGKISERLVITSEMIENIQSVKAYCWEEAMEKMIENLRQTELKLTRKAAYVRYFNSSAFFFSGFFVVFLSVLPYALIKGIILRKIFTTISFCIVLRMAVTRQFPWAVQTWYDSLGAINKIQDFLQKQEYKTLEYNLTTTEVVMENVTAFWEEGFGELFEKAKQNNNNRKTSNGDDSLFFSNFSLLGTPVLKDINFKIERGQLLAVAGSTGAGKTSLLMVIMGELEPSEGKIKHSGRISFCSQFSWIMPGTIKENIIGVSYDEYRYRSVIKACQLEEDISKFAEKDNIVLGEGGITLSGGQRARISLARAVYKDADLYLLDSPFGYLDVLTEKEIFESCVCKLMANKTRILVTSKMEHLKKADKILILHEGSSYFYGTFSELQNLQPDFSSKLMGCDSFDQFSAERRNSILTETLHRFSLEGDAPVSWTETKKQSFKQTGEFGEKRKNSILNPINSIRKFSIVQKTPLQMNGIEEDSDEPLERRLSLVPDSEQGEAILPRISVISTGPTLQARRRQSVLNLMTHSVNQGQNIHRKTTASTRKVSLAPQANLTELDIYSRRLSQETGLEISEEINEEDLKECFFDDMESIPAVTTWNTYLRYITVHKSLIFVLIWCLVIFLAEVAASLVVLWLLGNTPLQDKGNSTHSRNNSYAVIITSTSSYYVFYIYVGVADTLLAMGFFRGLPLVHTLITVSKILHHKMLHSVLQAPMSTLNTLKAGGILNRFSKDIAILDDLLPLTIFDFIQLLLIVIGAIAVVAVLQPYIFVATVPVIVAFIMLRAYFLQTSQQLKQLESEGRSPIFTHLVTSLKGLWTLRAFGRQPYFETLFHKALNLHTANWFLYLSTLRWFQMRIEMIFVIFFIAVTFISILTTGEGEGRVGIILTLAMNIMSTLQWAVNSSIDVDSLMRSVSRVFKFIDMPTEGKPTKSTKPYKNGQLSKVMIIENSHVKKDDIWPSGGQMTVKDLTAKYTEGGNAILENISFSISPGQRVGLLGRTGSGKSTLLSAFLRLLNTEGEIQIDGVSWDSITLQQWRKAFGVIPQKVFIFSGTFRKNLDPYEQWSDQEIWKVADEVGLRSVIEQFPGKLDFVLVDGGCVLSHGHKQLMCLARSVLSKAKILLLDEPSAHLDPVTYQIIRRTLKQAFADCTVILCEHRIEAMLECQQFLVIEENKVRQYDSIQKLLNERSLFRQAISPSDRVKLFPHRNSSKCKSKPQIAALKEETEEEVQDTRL

Take `CC(=O)n1ccc2ccc(NC(=O)c3c[nH]c4ccccc4c3=O)cc21` [Compound 187, N-(1-acetyl-1H-indol-6-yl)-4-oxo-1H-quinoline-3-carboxamide]: the concentration giving a half-maximal response (EC50) was under 10 µM and the “% Activity” value is reported as “++ (between 25% to 100%)”.

For the molecule `CCOC(=O)c1cc2cc[nH]c2cc1NC(=O)c1c[nH]c2ccccc2c1=O` [Compound 188, 6-[(4-oxo-1H-quinolin-3-yl)carbonylamino]-1H-indole-5-carboxylic acid ethyl ester], the EC50 is under 10 µM and the “% Activity” value is listed as “++ (between 25% to 100%)”.

For `O=C(Nc1ccc(OCc2ccccc2)cc1)c1c[nH]c2ccccc2c1=O` [Compound 189, N-(4-benzyloxyphenyl)-4-oxo-1H-quinoline-3-carboxamide], the EC50 was under 10 µM and the “% Activity” value is “++ (between 25% to 100%)”.

On to `O=C(Nc1ccccc1-c1ccc(F)c(Cl)c1)c1c[nH]c2ccccc2c1=O` [Compound 190, N-[2-(3-chloro-4-fluoro-phenyl)phenyl]-4-oxo-1H-quinoline-3-carboxamide], for which the EC50 is under 10 µM and the “% Activity” value is “++ (between 25% to 100%)”.

Consider `O=C(Nc1cccc2ncccc12)c1c[nH]c2ccccc2c1=O` [Compound 191, 4-oxo-N-(5-quinolyl)-1H-quinoline-3-carboxamide], for which the concentration giving a half-maximal response (EC50) lay in the range of 25 to 60 µM and the “% Activity” value is “+ (<25%)”.

Consider `Cc1cccnc1NC(=O)c1c[nH]c2ccccc2c1=O` [Compound 192, N-(3-methyl-2-pyridyl)-4-oxo-1H-quinoline-3-carboxamide], for which the EC50 was 25 to 60 µM and the “% Activity” value is “+ (<25%)”.

For `COc1ccc(NC(=O)c2c[nH]c3ccccc3c2=O)c(OC)n1` [Compound 193, N-(2,6-dimethoxy-3-pyridyl)-4-oxo-1H-quinoline-3-carboxamide], the EC50 was 10 to 25 µM and the “% Activity” value was “++ (between 25% to 100%)”.

Regarding `N#Cc1ccc(NC(=O)c2c[nH]c3ccccc3c2=O)cc1` [Compound 194, N-(4-cyanophenyl)-4-oxo-1H-quinoline-3-carboxamide], the EC50 was in the range of 25 to 60 µM and the “% Activity” value is “+ (<25%)”.

In the case of `Cc1ccc(NC(=O)c2c[nH]c3ccccc3c2=O)nc1` [Compound 195, N-(5-methyl-2-pyridyl)-4-oxo-1H-quinoline-3-carboxamide], the half-maximal effective concentration (EC50) fell in the range of 25 to 60 µM and the “% Activity” value is listed as “+ (<25%)”.

Regarding `CC(C)(C)CC(=O)Nc1ccc(C(C)(C)C)c(NC(=O)c2c[nH]c3ccccc3c2=O)c1` [Compound 196, N-[5-(3,3-dimethylbutanoylamino)-2-tert-butyl-phenyl]-4-oxo-1H-quinoline-3-carboxamide], the concentration for a half-maximal effect (EC50) is under 10 µM and the “% Activity” value is reported as “++ (between 25% to 100%)”.

For `O=C(Nc1ccc(C(F)(F)F)nc1)c1c[nH]c2ccccc2c1=O` [Compound 197, 4-oxo-N-[6-(trifluoromethyl)-3-pyridyl]-1H-quinoline-3-carboxamide], the half-maximal effective concentration (EC50) lay within 25 to 60 µM and the “% Activity” value is on record as “+ (<25%)”.

As to `O=C(Nc1ccc(F)cc1)c1c[nH]c2ccccc2c1=O` [Compound 198, N-(4-fluorophenyl)-4-oxo-1H-quinoline-3-carboxamide], the 50% effective concentration (EC50) is under 10 µM and the “% Activity” value is “++ (between 25% to 100%)”.

With `Cc1ccccc1-c1ccccc1NC(=O)c1c[nH]c2ccccc2c1=O` [Compound 199, N-[2-(o-tolyl)phenyl]-4-oxo-1H-quinoline-3-carboxamide], the EC50 was under 10 µM and the “% Activity” value was “++ (between 25% to 100%)”.

In the case of `O=C(Nc1ccc2c(c1)C(O)CCC2)c1c[nH]c2ccccc2c1=O` (stereo not drawn) [Compound 200, 1,4-dihydro-N-(1,2,3,4-tetrahydro-1-hydroxynaphthalen-7-yl)-4-oxoquinoline-3-carboxamide], the 50% effective concentration (EC50) was in the range of 10 to 25 µM and the “% Activity” value is reported as “++ (between 25% to 100%)”.

Take `Cc1cccc(NC(=O)c2c[nH]c3ccccc3c2=O)c1C#N` [Compound 201, N-(2-cyano-3-methyl-phenyl)-4-oxo-1H-quinoline-3-carboxamide]: the concentration for a half-maximal effect (EC50) fell in the range of 10 to 25 µM and the “% Activity” value is recorded as “+ (<25%)”.

Take `COc1ccc(Cl)cc1-c1ccccc1NC(=O)c1c[nH]c2ccccc2c1=O` [Compound 202, N-[2-(5-chloro-2-methoxy-phenyl)phenyl]-4-oxo-1H-quinoline-3-carboxamide]: the EC50 is under 10 µM and the “% Activity” value was “++ (between 25% to 100%)”.

For the molecule `O=C(Nc1ccc2ccn(Cc3ccccc3)c2c1)c1c[nH]c2ccccc2c1=O` [Compound 203, N-(1-benzyl-1H-indol-6-yl)-4-oxo-1H-quinoline-3-carboxamide], the concentration for a half-maximal effect (EC50) is under 10 µM and the “% Activity” value is recorded as “++ (between 25% to 100%)”.

On to `CC1(C)CCOc2cc(NC(=O)c3c[nH]c4ccccc4c3=O)ccc21` [Compound 204, N-(4,4-dimethylchroman-7-yl)-4-oxo-1H-quinoline-3-carboxamide], for which the EC50 is under 10 µM and the “% Activity” value is “++ (between 25% to 100%)”.

`COc1ccc(Oc2ccc(C(F)(F)F)cc2NC(=O)c2c[nH]c3ccccc3c2=O)cc1` [Compound 205, N-[2-(4-methoxyphenoxy)-5-(trifluoromethyl)phenyl]-4-oxo-1H-quinoline-3-carboxamide]: the EC50 was under 10 µM and the “% Activity” value is “++ (between 25% to 100%)”.

`Cc1cccc(Oc2ncccc2NC(=O)c2c[nH]c3ccccc3c2=O)c1C` [Compound 206, N-[2-(2,3-dimethylphenoxy)-3-pyridyl]-4-oxo-1H-quinoline-3-carboxamide]: the EC50 was under 10 µM and the “% Activity” value was “++ (between 25% to 100%)”.

As to `CCOC(=O)Cc1c[nH]c2cc(NC(=O)c3c[nH]c4ccccc4c3=O)ccc12` [Compound 207, 2-[6-[(4-oxo-1H-quinolin-3-yl)carbonylamino]-1H-indol-3-yl]acetic acid ethyl ester], the EC50 was under 10 µM and the “% Activity” value is recorded as “++ (between 25% to 100%)”.

In the case of `Cc1cc(C2C3CC4CC(C3)CC2C4)c(O)cc1NC(=O)c1c[nH]c2ccccc2c1=O` (stereo not drawn) [Compound 208, N-[4-(2-adamantyl)-5-hydroxy-2-methyl-phenyl]-4-oxo-1H-quinoline-3-carboxamide], the EC50 was under 10 µM and the “% Activity” value was “++ (between 25% to 100%)”.

`O=C(Nc1ccc(CO)cc1)c1c[nH]c2ccccc2c1=O` [Compound 209, N-[4-(hydroxymethyl)phenyl]-4-oxo-1H-quinoline-3-carboxamide]: the EC50 lay in the range of 10 to 25 µM and the “% Activity” value is recorded as “++ (between 25% to 100%)”.

For the molecule `COc1nc2ccccc2c(OC)c1C(=O)Nc1ccccc1-c1ccccc1` [Compound 210, 2,4-dimethoxy-N-(2-phenylphenyl)-quinoline-3-carboxamide], the EC50 lay in the range of 10 to 25 µM and the “% Activity” value is listed as “++ (between 25% to 100%)”.

With `COc1ccc(C(C)(C)C)cc1NC(=O)c1c[nH]c2ccccc2c1=O` [Compound 211, N-(2-methoxy-5-tert-butyl-phenyl)-4-oxo-1H-quinoline-3-carboxamide], the EC50 was under 10 µM and the “% Activity” value is given as “++ (between 25% to 100%)”.

With `CC1=NN(c2cccc(NC(=O)c3c[nH]c4ccccc4c3=O)c2)C(=O)C1` [Compound 212, N-[3-(3-methyl-5-oxo-1,4-dihydropyrazol-1-yl)phenyl]-4-oxo-1H-quinoline-3-carboxamide], the EC50 fell in the range of 25 to 60 µM and the “% Activity” value was “+ (<25%)”.

For `O=C(Nc1ccccc1-c1cc(Cl)ccc1Cl)c1c[nH]c2ccccc2c1=O` [Compound 213, N-[2-(2,5-dichlorophenyl)phenyl]-4-oxo-1H-quinoline-3-carboxamide], the EC50 is under 10 µM and the “% Activity” value is “++ (between 25% to 100%)”.

Take `CS(=O)(=O)Nc1cccc(NC(=O)c2c[nH]c3ccccc3c2=O)c1` [Compound 214, N-(3-methylsulfonylaminophenyl)-4-oxo-1H-quinoline-3-carboxamide]: the “% Activity” value is “++ (between 25% to 100%)”.

As for `O=C(Nc1ccccc1)c1c[nH]c2ccccc2c1=O` [Compound 215, 4-Oxo-N-phenyl-1H-quinoline-3-carboxamide], the EC50 is under 10 µM and the “% Activity” value is listed as “++ (between 25% to 100%)”.

In the case of `O=C(Nc1nc2ccccc2[nH]1)c1c[nH]c2ccccc2c1=O` [Compound 216, N-(3H-benzoimidazol-2-yl)-4-oxo-1H-quinoline-3-carboxamide], the EC50 was in the range of 25 to 60 µM and the “% Activity” value was “+ (<25%)”.

As for `O=C(Nc1ccc2[nH]ncc2c1)c1c[nH]c2ccccc2c1=O` [Compound 217, N-(1H-indazol-5-yl)-4-oxo-1H-quinoline-3-carboxamide], the EC50 is 10 to 25 µM and the “% Activity” value is reported as “++ (between 25% to 100%)”.

Take `CC1(c2cc(F)c(NC(=O)c3c[nH]c4ccc(F)cc4c3=O)cc2O)CCCCC1` [Compound 218, 6-fluoro-N-[2-fluoro-5-hydroxy-4-(1-methylcyclohexyl)-phenyl]-4-oxo-1H-quinoline-3-carboxamide]: the EC50 is under 10 µM and the “% Activity” value was “++ (between 25% to 100%)”.

Turning to `O=C(Nc1cnccn1)c1c[nH]c2ccccc2c1=O` [Compound 219, 4-oxo-N-pyrazin-2-yl-1H-quinoline-3-carboxamide], the EC50 fell in the range of 25 to 60 µM and the “% Activity” value is “+ (<25%)”.

Consider `CC(C)(C)c1cc(C(C)(C)C)c(NC(=O)c2c[nH]c3ccccc3c2=O)c(O)c1O` [Compound 220, N-(2,3-dihydroxy-4,6-ditert-butyl-phenyl)-4-oxo-1H-quinoline-3-carboxamide], for which the half-maximal effective concentration (EC50) was under 10 µM and the “% Activity” value is recorded as “++ (between 25% to 100%)”.

Regarding `CCCc1ccc(NC(=O)c2c[nH]c3ccccc3c2=O)cc1NC(=O)OC` [Compound 221, [5-[(4-oxo-1H-quinolin-3-yl)carbonylamino]-2-propyl-phenyl]aminoformic acid methyl ester], the EC50 is under 10 µM and the “% Activity” value is reported as “++ (between 25% to 100%)”.
